Source: patent US20060019951A1, “Vacuolins” (CBR Institute for Biomedical Research, priority 2002, published 2006)

Tested on: vacuole formation in cells exposed to a vacuolin
Experiment: Conditions under which vacuole formation is blocked in cells exposed to a vacuolin
Format: cell-based
Conditions: FIGS. 8-10
Excerpt: Additional studies were directed at identifying conditions under which vacuole formation is blocked (see, for example, FIGS. 8-10). […] It is likely that the intravacuolar pH is higher than the low pH of lysosomes; the vacuoles are likely to accumulate Cl ions (see, for example, FIG. 11).

## CO/C1=C\C(C)=C\[C@@H](C)[C@@H](O)[C@@H](C)C/C(C)=C/C=C/[C@H](OC)[C@@H]([C@@H](C)[C@@H](O)[C@H](C)[C@@]2(O)C[C@@H](O)[C@H](C)[C@@H](C(C)C)O2)OC1=O [bafilomycin A]
  effect on vacuole formation in cells exposed to a vacuolin: inhibited
